In patent US20230248832A1, “Small Molecule Ligand-Drug Conjugates for Targeted Cancer Therapy” (Emory University, priority 2008, published 2023):
Entries after “also recorded” stand apart in the source; their conditions may differ. Like-named read-outs stand apart in the source and are kept apart here.

What was measured:
cancer [1] = test: In vivo cancer targeting of IR783 derivatives
cancer [2] = test: In vitro cancer targeting of IR783 derivatives; format: cell-based
[3] = Body weight during treatment of C4-2 tumor-bearing mice; format: in vivo, athymic nude mice; conditions: i.p.
Source text: During treatment, the body weights were obtained daily.
(§1) C4-2 prostate cancer cells were subcutaneously implanted into the back of the 4 to 6 week old athymic nude mice. […] The serum prostate specific antigen (PSA) levels, which indicating the presence of prostate cancers, were monitored during the tumor reduction study.

[4] = tested on: C4-2 human prostate cancer cells implanted subcutaneously; test: Subcutaneous C4-2 prostate tumor model; format: in vivo, athymic nude mice; conditions: for incidence of tumor formation: SQ C4-2, i.p., IR783 and IR-MUT1 5 mg/kg daily, taxotere 15 mg/kg twice per week; for apoptosis in SQ C4-2 tumors (histopathology, H/E stain): SQ C4-2 tumors in mice
Experimental: 1 million C4-2 human prostate cancer cells were implanted subcutaneously into the back of the 4 to 6 week old athymic nude mice. […] Tumor diameters were measured with a caliper, and tumor volume in mm^3 is calculated by the formula: Volume=(width)^2×length/2.
Serum PSA levels were used to monitor tumor growth in a C4-2 SQ tumor model. Mice were checked for serum PSA levels before implantation and at 35 and 45 days after tumor cell implantation.
as §1

cancer cells = test: Toxicity to cancer cells at day 2 (FIG. 6); format: cell-based; conditions: evaluated at day 2; compared with free nonconjugated drug taxotere
Source text: IR-783 (dye molecule only) is nontoxic. […] This is expected since IR783 conjugated to docetaxel or paclitaxel, accumulation in cells require enzymatic activation, which releases the active taxotere or taxol component inside of the cells to exert cytotoxicity against the growth of cancer cells.

[5] = tested on: C4-2 human prostate cancer cells implanted intraosseously into the tibia; test: Intratibial C4-2 prostate tumor model; format: in vivo, athymic nude mice; conditions: for tumors growing from tibia (incidence): i.p. from 30 days after implantation
Experimental: 1 million C4-2 human prostate cancer cells were implanted intraosseously into the tibia of the 4 to 6 week old athymic nude mice. […] The animals were observed daily and body weights were measured daily. Tumor diameters are measured with calipers, and tumor volume in mm^3 is calculated by the formula: Volume=(width)^2×length×0.5236.
In another tumor model, C4-2 cancer cells were administered intraosseously into the tibia of the 4 to 6 week old athymic nude mice.

[6] = tested on: SN12C human renal cancer cells; test: MTT cytotoxicity assay, SN12C; format: cell-based; conditions: 48 hrs
Experimental: (§2) C4-2 (FIG. 13A) and P69 (FIG. 13B) cells were plated in 96 well plates (3,000/well). […] (FIG. 13C) SN12C and (FIG. 13D) HEK293 cells were plated in 96 well plates (3,000/well).

[7] = tested on: P69 normal human prostate epithelial cells; test: MTT cytotoxicity assay, P69; format: cell-based; conditions: Epithelial cell, 48 hours
Experimental: as §2

[8] = tested on: C4-2 human prostate cancer cells; test: MTT cytotoxicity assay, C4-2; format: cell-based; conditions: C4-2 cells, 48 hrs
Experimental: as §2

[9] = tested on: HEK293 human embryonic kidney cells; test: MTT cytotoxicity assay, HEK293; format: cell-based; conditions: 48 hrs
Experimental: as §2

| SMILES | In vivo targeting (cancer [1]) | In vitro targeting (cancer [2]) | further results |
| --- | --- | --- | --- |
| CCn1/c(=C/C=C/C2=[N+](CC)c3cccc4cccc2c34)c2cccc3cccc1c32 | poor | good | – |
| CC1(C)C(/C=C/C2=C(Cl)C(=C/C=C3/N(CCCCC(=O)O)c4ccccc4C3(C)C)/CCC2)=[N+](CCCCC(=O)[O-])c2ccccc21 | excellent | excellent | – |
| COc1ccc2c(c1)C(C)(C)C(/C=C/C=C/C=C1/N(C)c3ccc(OC)cc3C1(C)C)=[N+]2C.[I-] | – | excellent | – |
| CN1/C(=C/C=C(Cl)/C=C/C2=[N+](C)c3ccc4ccccc4c3C2(C)C)C(C)(C)c2c1ccc1ccccc21 | – | excellent | – |
| CN1/C(=C/C=C(Cl)/C=C/C2=[N+](C)c3ccccc3C2(C)C)C(C)(C)c2ccccc21.[I-] | – | excellent | – |
| CC1(C)C(/C=C/C2=C(Cl)C(=C/C=C3/N(CCCCCC(=O)O)c4ccccc4C3(C)C)/CCC2)=[N+](CCCCCC(=O)O)c2ccccc21.[Na+].[Na+] | excellent | excellent | – |
| CC1(C)C(/C=C/C2=C(Cl)C(=C/C=C3/N(CCCCO)c4ccccc4C3(C)C)/CCC2)=[N+](CCCCO)c2ccccc21 | poor | poor | – |
| CC1(C)C(/C=C/C2=C(Cl)C(=C/C=C3/N(CCCc4ccccc4)c4ccccc4C3(C)C)/CCC2)=[N+](CCCc2ccccc2)c2ccccc21 | poor | excellent | – |
| CC1(C)C(/C=C/C2=C(Cl)C(=C/C=C3/N(CCO)c4ccccc4C3(C)C)/CCC2)=[N+](CCO)c2ccccc21 | low intensity | excellent | – |
| CN1/C(=C/C=C2\CCCC(/C=C/C3=[N+](C)c4ccc5ccccc5c4C3(C)C)=C2Cl)C(C)(C)C2=c3ccccc3=CCC21.[I-] (stereo not shown) | poor | – | – |
| I.O=C1C(/C=c2\c3cccc4cccc(c43)n2CCCc2ccccc2)=C([O-])C/1=C/C1=[N+](CCCc2ccccc2)c2cccc3cccc1c23 | poor | – | – |
| O=C(O)CCCCCn1/c(=C/C=C2\CCCC(/C=C/C3=[N+](CCCCCC(=O)O)c4cccc5cccc3c45)=C2Cl)c2cccc3cccc1c32.[Na+].[Na+] | poor | poor | – |
| CC1(C)C(=CC=C2CCCC(C=CC3=[N+](CCCCS(=O)(=O)[O-])c4ccccc4C3(C)C)=C2Cl)N(CCCCS(=O)(=O)[O-])c2ccccc21.[Na+] [IR-783, reference compound] | – | – | effect on body weight [3]: no body weight loss; incidence of tumor formation [4]: 9/20; apoptosis in SQ C4-2 tumors (histopathology, H/E stain) [4]: negligible; apoptosis in SQ C4-2 tumors (histopathology, H/E stain) ([4]; listed as IR783): not affected; toxicity to cancer cells (cancer cells): nontoxic; bone lesions on X-ray [5]: both the osteolytic and osteoblastic lesions were apparently observed; average volume of tumor ([5]; IR-783 group versus IR-MUT1 group): significantly higher; tumors growing from tibia (incidence) [5]: 4/5; bone lesions on X-ray ([5]; listed as IR783): severe osteolytic lesions |
| CC(=O)O[C@@]12CO[C@@H]1C[C@H](O)[C@@]1(C)C(=O)[C@H](O)C3=C(C)[C@@H](OC(=O)[C@H](O)[C@@H](NC(=O)OC(C)(C)C)c4ccccc4)C[C@@](O)([C@@H](OC(=O)c4ccccc4)[C@H]21)C3(C)C [taxotere, docetaxel, reference compound] | – | – | effect on body weight [3]: noticeably lower; serum PSA levels ([4]; 35 and 45 days after tumor cell implantation, compared with IR-783 (control) group): greatly depressed; also recorded: dramatically lower; also recorded: significantly lower; incidence of tumor formation [4]: no tumor growing; also recorded: no tumor formed; IC50 [6]: 12 nM; IC50 [7]: ~10 nM; IC50 [8]: 10 nM; IC50 [9]: ~600 nM; bone lesions on X-ray [5]: no lesion; tumors growing from tibia (incidence) [5]: 0/5 |
